According to ChEMBL document CHEMBL3885881, “DrugMatrix”:

Organism: Rattus norvegicus
Experiment: DrugMatrix - Regimen: Daily Repeat
Format: toxicity, organism-based, Sprague-Dawley
Set-up: regimen Daily Repeat, gender Male, age 6-8 weeks
Settings: in vivo, iv, vehicle 100 % SALINE; for ABSOLUTE BASOPHIL / ABSOLUTE EOSINOPHIL / ABSOLUTE LYMPHOCYTE / ABSOLUTE MONOCYTE / ABSOLUTE SEGMENTED NEUTROPHIL / BASOPHIL / EOSINOPHIL / ERYTHROCYTE COUNT / HEMATOCRIT / HEMOGLOBIN / LEUKOCYTE COUNT / LYMPHOCYTE / MEAN CORPUSCULAR HEMOGLOBIN / MEAN CORPUSCULAR HEMOGLOBIN CONCENTRATION / MEAN CORPUSCULAR VOLUME / MONOCYTE / NEUTROPHIL / NUCLEATED RED BLOOD CELLS / PLATELET COUNT: tissue Blood
[1] = 0 mg/kg, 72 h, dose level Control, time 3 day
[2] = 0 mg/kg, 72 h, tissue Plasma, dose level Control, time 3 day
[3] = 0 mg/kg, 120 h, dose level Control, time 5 day
[4] = 0 mg/kg, 120 h, tissue Plasma, dose level Control, time 5 day
[5] = […], 72 h, dose 0.56 mg/Kg, dose level High, time 3 day
[6] = […], 72 h, tissue Plasma, dose 0.56 mg/Kg, dose level High, time 3 day
[7] = […], 120 h, dose 0.56 mg/Kg, dose level High, time 5 day
[8] = […], 120 h, tissue Plasma, dose 0.56 mg/Kg, dose level High, time 5 day

INSULIN HUMAN
ABSOLUTE BASOPHIL [1]: 0 CELLS/uL
ABSOLUTE EOSINOPHIL [1]: 46.17 CELLS/uL
ABSOLUTE LYMPHOCYTE [1]: 9089 CELLS/uL
ABSOLUTE MONOCYTE [1]: 242 CELLS/uL
ABSOLUTE SEGMENTED NEUTROPHIL [1]: 856.17 CELLS/uL
BASOPHIL [1]: 0%
EOSINOPHIL [1]: 0.5%
ERYTHROCYTE COUNT [1]: 5.1 x10E6/uL
HEMATOCRIT [1]: 32.5%
HEMOGLOBIN [1]: 12.35 G/DL
LEUKOCYTE COUNT [1]: 10.23 x10E3/uL
LYMPHOCYTE [1]: 88.5%
MEAN CORPUSCULAR HEMOGLOBIN [1]: 24.18 pg
MEAN CORPUSCULAR HEMOGLOBIN CONCENTRATION [1]: 38 G/DL
MEAN CORPUSCULAR VOLUME [1]: 63.62 fL
MONOCYTE [1]: 2.5%
NEUTROPHIL [1]: 8.5%
NUCLEATED RED BLOOD CELLS [1]: 0.17 /100WBC
PLATELET COUNT [1]: 1038.67 x10E3/uL
ALANINE AMINOTRANSFERASE [2]: 51.33 u/L
ALBUMIN [2]: 3.9 G/DL
ALKALINE PHOSPHATASE [2]: 409.33 u/L
ASPARTATE AMINOTRANSFERASE [2]: 91.67 u/L
CHLORIDE [2]: 97.83 MEQ/L
CHOLESTEROL [2]: 79.33 mg/dL
CREATINE PHOSPHOKINASE [2]: 628.67 u/L
CREATININE [2]: 0.21 mg/dL
LACTATE DEHYDROGENASE [2]: 120.33 u/L
PHOSPHORUS [2]: 10.48 mg/dL
POTASSIUM [2]: 5.83 MEQ/L
TOTAL BILIRUBIN [2]: 0.2 mg/dL
TOTAL PROTEIN [2]: 6.15 G/DL
URIC ACID [2]: 0.45 mg/dL
ABSOLUTE BASOPHIL [3]: 0 CELLS/uL
ABSOLUTE EOSINOPHIL [3]: 12.17 CELLS/uL
ABSOLUTE LYMPHOCYTE [3]: 10388 CELLS/uL
ABSOLUTE MONOCYTE [3]: 140.17 CELLS/uL
ABSOLUTE SEGMENTED NEUTROPHIL [3]: 1576.33 CELLS/uL
BASOPHIL [3]: 0%
EOSINOPHIL [3]: 0.17%
ERYTHROCYTE COUNT [3]: 5.71 x10E6/uL
HEMATOCRIT [3]: 35.57%
LEUKOCYTE COUNT [3]: 12.12 x10E3/uL
LYMPHOCYTE [3]: 85.83%
MEAN CORPUSCULAR HEMOGLOBIN [3]: 23.53 pg
MEAN CORPUSCULAR HEMOGLOBIN CONCENTRATION [3]: 37.73 G/DL
MONOCYTE [3]: 1%
NEUTROPHIL [3]: 13%
NUCLEATED RED BLOOD CELLS [3]: 0.33 /100WBC
PLATELET COUNT [3]: 1347.67 x10E3/uL
ALANINE AMINOTRANSFERASE [4]: 47.83 u/L
ALKALINE PHOSPHATASE [4]: 380 u/L
ASPARTATE AMINOTRANSFERASE [4]: 81.17 u/L
BLOOD UREA NITROGEN [4]: 14.67 mg/dL
CARBON DIOXIDE [4]: 36.17 mmol/L
CHLORIDE [4]: 98.17 MEQ/L
CHOLESTEROL [4]: 69.33 mg/dL
CREATINE PHOSPHOKINASE [4]: 547.17 u/L
CREATININE [4]: 0.28 mg/dL
GLUCOSE [4]: 140.5 mg/dL
LACTATE DEHYDROGENASE [4]: 153.83 u/L
LIPASE [4]: 7.83 u/L
POTASSIUM [4]: 5.86 MEQ/L
TOTAL BILIRUBIN [4]: 0.17 mg/dL
TOTAL PROTEIN [4]: 6.33 G/DL
URIC ACID [4]: 0.68 mg/dL
ABSOLUTE BASOPHIL [5]: 0 CELLS/uL
ABSOLUTE EOSINOPHIL [5]: 0 CELLS/uL
ABSOLUTE LYMPHOCYTE [5]: 9557.33 CELLS/uL
ABSOLUTE MONOCYTE [5]: 233.33 CELLS/uL
ABSOLUTE SEGMENTED NEUTROPHIL [5]: 942.67 CELLS/uL
BASOPHIL [5]: 0%
EOSINOPHIL [5]: 0%
ERYTHROCYTE COUNT [5]: 5.18 x10E6/uL
HEMATOCRIT [5]: 33.13%
HEMOGLOBIN [5]: 12.73 G/DL
LEUKOCYTE COUNT [5]: 10.73 x10E3/uL
LYMPHOCYTE [5]: 89.33%
MEAN CORPUSCULAR HEMOGLOBIN [5]: 24.6 pg
MEAN CORPUSCULAR HEMOGLOBIN CONCENTRATION [5]: 38.43 G/DL
MEAN CORPUSCULAR VOLUME [5]: 64 fL
MONOCYTE [5]: 2%
NUCLEATED RED BLOOD CELLS [5]: 0.33 /100WBC
PLATELET COUNT [5]: 1173.33 x10E3/uL
ALANINE AMINOTRANSFERASE [6]: 50.67 u/L
ALBUMIN [6]: 3.9 G/DL
ALKALINE PHOSPHATASE [6]: 425.67 u/L
ASPARTATE AMINOTRANSFERASE [6]: 87.67 u/L
BLOOD UREA NITROGEN [6]: 16 mg/dL
CARBON DIOXIDE [6]: 29.33 mmol/L
CHLORIDE [6]: 98 MEQ/L
CHOLESTEROL [6]: 73.33 mg/dL
CREATINE PHOSPHOKINASE [6]: 247.67 u/L
CREATININE [6]: 0.2 mg/dL
GLUCOSE [6]: 158.67 mg/dL
LACTATE DEHYDROGENASE [6]: 90.33 u/L
LIPASE [6]: 12 u/L
POTASSIUM [6]: 5.04 MEQ/L
SODIUM [6]: 140.73 MEQ/L
TOTAL BILIRUBIN [6]: 0.17 mg/dL
TOTAL PROTEIN [6]: 6.1 G/DL
URIC ACID [6]: 0.33 mg/dL
ABSOLUTE BASOPHIL [7]: 0 CELLS/uL
ABSOLUTE EOSINOPHIL [7]: 0 CELLS/uL
ABSOLUTE LYMPHOCYTE [7]: 9972 CELLS/uL
ABSOLUTE MONOCYTE [7]: 151.33 CELLS/uL
ABSOLUTE SEGMENTED NEUTROPHIL [7]: 1610 CELLS/uL
BASOPHIL [7]: 0%
EOSINOPHIL [7]: 0%
ERYTHROCYTE COUNT [7]: 5.32 x10E6/uL
HEMATOCRIT [7]: 33.67%
LEUKOCYTE COUNT [7]: 11.73 x10E3/uL
LYMPHOCYTE [7]: 85%
MEAN CORPUSCULAR HEMOGLOBIN [7]: 24.17 pg
MEAN CORPUSCULAR HEMOGLOBIN CONCENTRATION [7]: 38.23 G/DL
NEUTROPHIL [7]: 13.67%
NUCLEATED RED BLOOD CELLS [7]: 0.33 /100WBC
PLATELET COUNT [7]: 1293.67 x10E3/uL
ALANINE AMINOTRANSFERASE [8]: 53.33 u/L
ALKALINE PHOSPHATASE [8]: 426 u/L
ASPARTATE AMINOTRANSFERASE [8]: 73 u/L
BLOOD UREA NITROGEN [8]: 14.67 mg/dL
CARBON DIOXIDE [8]: 34.67 mmol/L
CHLORIDE [8]: 98 MEQ/L
CREATINE PHOSPHOKINASE [8]: 305 u/L
CREATININE [8]: 0.27 mg/dL
GLUCOSE [8]: 134.67 mg/dL
LACTATE DEHYDROGENASE [8]: 124.33 u/L
LIPASE [8]: 7.67 u/L
PHOSPHORUS [8]: 10.33 mg/dL
POTASSIUM [8]: 5.91 MEQ/L
TOTAL BILIRUBIN [8]: 0.2 mg/dL
TOTAL PROTEIN [8]: 6.23 G/DL
URIC ACID [8]: 0.6 mg/dL
